Measurements from paper PMC10354055, “An optimized Nurr1 agonist provides disease-modifying effects in Parkinson’s disease models” (Nature Communications, 2023).
Where “and” joins values, the source holds several entries; their conditions need not be identical. Equal entries are not always repeated.

Legend:
[1] = tested on: AAV-αSyn-induced male mice; assay: Pole test, AAV-αSyn-induced PD model mice; assay type: in vivo, mouse; details: αSynWT and αSynA53T mice; CQ 40, 4A7C-301 5 mg/kg/day i.p.
Excerpt: (§1) Adeno-associated viruses (AAVs) expressing GFP only or αSyn (wild-type or A53T) were kindly provided by Dr. Yoon Seong Kim from the University of Central Florida. Recombinant AAV vectors were produced using modified pAAV-IRES-hrGFP (Agilent) to express wild-type and mutant human αSyn under control of the CMV promoter. Viral particles (AAV2) were produced at the University of Iowa Viral Vector Core according to standard operating procedures (https://medicine.uiowa.edu/vectorcore/). […] AAV vectors were delivered into the substantia nigra unilaterally by stereotaxic surgery.
Mice were trained to descend a vertical metal rod wrapped with rough tape (80 cm high, 12 mm diameter) once per day for 2 days, and then the baseline was measured before the pole test (3 days before the MPTP injection or the first pole test at week 2). Mice were placed head-upward on the pole and total descent time was recorded.

[2] = tested on: AAV-αSyn-induced male mice; assay: Dopamine ELISA in SN and STR, AAV-αSyn-injected mice; assay type: in vivo, mouse; details: for DA levels in the SN and STR (in words): αSynWT-mice
Excerpt: as §1
For MPTP-induced mice, the left hemisphere of each group (n = 5) was used for analysis and compared to the vehicle-treated group (VEH). For AAV-αSyn-injected mouse model, the viral vector injected side (left hemisphere; ipsilateral) of each group (n = 3) was compared to the non-injected side (right hemisphere; contralateral).

TH+ neurons = assay: Primary rat VM neuron-glia co-culture, TH+ neurons (ICC); assay type: cell-based
Protocol: After blocking with 10% normal donkey serum (NDS) and 0.1% Triton X-100 solution for 1 h at room temperature, cells were incubated with primary antibodies against TH (1:1,000; Pel Freez, P40401) and Iba-1 (1:500; Abcam, ab5076) in 1% NDS and 0.1% Triton X-100 solution for overnight at 4 °C. […] Fluorescence images were taken using a KEYENCE microscope (BZ-X800; KEYENCE).

[3] = tested on: AAV-αSyn-induced male mice; assay: Olfactory discrimination test, AAV-αSyn-induced PD model mice; assay type: in vivo, mouse
Excerpt: as §1
The olfactory discrimination test was designed based on Prediger et al.. Briefly, mice were placed in a chamber (40 (w) × 20 (d) × 20 (h) cm) segmented with two identical compartments containing fresh sawdust (non-familiar odor) on one side and unchanged sawdust (familiar odor; maintained for 3 days before the test) on the other side. Mice could choose between one or another area by freely passing through an open door, for 5 min. Mice movements were monitored with EthoVision XT version 7.0 (Noldus) and time (s) and distance (cm) traveled in each compartment were recorded and analyzed.

Nor1 = molecular target: T1, Nor1 (Homo sapiens, UniProt Q92570); assay: Luciferase reporter assay, Nor1 LBD, SK-N-BE(2)C cells; assay type: cell-based; details: Fig. 1f; CQ 100 µM, 4A7C-301 20 µM, PGA1 10 µM
T1 construct: using LBD of NR4A subfamily members in SK-N-BE(2)C cells; expressed in transfected cells; host or cells: SK-N-BE(2)C
T1 sequence (Q92570 394-623 limits assumed): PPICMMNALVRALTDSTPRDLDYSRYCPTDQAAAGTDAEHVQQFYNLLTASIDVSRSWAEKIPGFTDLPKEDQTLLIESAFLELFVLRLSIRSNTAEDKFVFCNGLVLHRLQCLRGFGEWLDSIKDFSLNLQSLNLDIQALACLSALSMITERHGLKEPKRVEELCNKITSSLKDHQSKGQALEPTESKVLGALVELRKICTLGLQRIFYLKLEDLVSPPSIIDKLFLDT

[4] = tested on: AAV-αSyn-induced male mice; assay: Western blot of human-αSyn in SNpc, AAV-αSyn-injected mice; assay type: in vivo, mouse
Protocol: Experiments were confirmed by duplicate measurements of the same sample. Quantification of immunoreactive bands was performed using ImageJ software (NIH, Bethesda, MD, USA) and expressed as a relative ratio against β-actin.
Adeno-associated viruses (AAVs) expressing GFP only or αSyn (wild-type or A53T) were kindly provided by Dr. Yoon Seong Kim from the University of Central Florida. Recombinant AAV vectors were produced using modified pAAV-IRES-hrGFP (Agilent) to express wild-type and mutant human αSyn under control of the CMV promoter. Viral particles (AAV2) were produced at the University of Iowa Viral Vector Core according to standard operating procedures (https://medicine.uiowa.edu/vectorcore/). Male C57BL/6 mice (8-10 weeks, 25-30 g; Jackson Laboratories) were randomly assigned to 7 groups including empty vector (GFP) + VEH, wild-type αSyn (αSyn^WT) + VEH, mutant αSyn (αSyn^A53T) + VEH, αSyn^WT + CQ, αSyn^A53T + CQ, αSyn^WT + 4A7C-301 and αSyn^A53T + 4A7C-301 (n = 8 per group). AAV vectors were delivered into the substantia nigra unilaterally by stereotaxic surgery. […] CQ (40 mg/kg/day) or 4A7C-301 (5 mg/kg/day) administration was started 4 weeks after AAV vector injections and continued for […] before sacrifice at 8 weeks after surgery.

[5] = Supplementary Figure S10e, αSynA53T
[6] = Supplementary Figure S10e, αSynWT
[7] = Supplementary Figure S10f, αSynA53T
[8] = Supplementary Figure S10f, αSynWT

SMILES	motor deficits, pole test (in words) [1]	DA level (% of contralateral side) [2, 5]	DA level (% of contralateral side) [2, 6]	DA level (% of contralateral side) [2, 7]	DA level (% of contralateral side) [2, 8]	DA levels in the SN and STR (in words) [2]	concentration of maximal effect on mDAN rescue (TH+ neurons; MPP+ or LPS) [nM]	concentration of maximal effect, times lower than CQ (TH+ neurons; mDAN rescue) [times]	DA levels (in words) ([2]; αSynA53T-mice)	olfactory dysfunction (in words) ([3]; αSynA53T-mice)	olfactory dysfunction (in words) ([3]; αSynWT-mice, 6 and 8 weeks after surgery)	Luciferase activity (fold), Nor1 (Nor1)	accumulation of αSyn (in words) [4]
CCN(CC)CCCC(C)Nc1ccnc2cc(Cl)ccc12 (stereo not shown) [CQ, chloroquine]	partial recovery	32.648 % of contralateral side and 32.350 % of contralateral side and 33.119 % of contralateral side	73.112 % of contralateral side and 72.962 % of contralateral side and 71.012 % of contralateral side	33.096 % of contralateral side and 33.011 % of contralateral side and 33.320 % of contralateral side	70.155 % of contralateral side and 68.851 % of contralateral side and 68.899 % of contralateral side	significantly increased	–	–	–	–	–	–	–
CCN1CCN(c2cc(N3CCN(CC)CC3)nc(NCCNc3ccnc4cc(Cl)ccc34)n2)CC1 [4A7C-301, N^1-(4,6-bis(4-ethylpiperazin-1-yl)pyrimidin-2-yl)-N^2-(7-chloroquinolin-4-yl)ethane-1,2-diamine]	improved motor deficits	52.259 % of contralateral side and 51.869 % of contralateral side and 51.727 % of contralateral side	78.777 % of contralateral side and 81.036 % of contralateral side and 79.879 % of contralateral side	55.117 % of contralateral side and 54.305 % of contralateral side and 55.007 % of contralateral side	77.063 % of contralateral side and 74.376 % of contralateral side and 74.108 % of contralateral side	significantly increased	500	40	increased	significantly reversed	rescued olfactory dysfunction	3.28 fold and 3.108 fold and 3.492 fold	significantly diminished
